The values that follow come from patent publication US20110091375A1, “USE OF THE COMBINATION COMPRISING TEMOZOLOMIDE AND TNF-ALPHA FOR TREATING GLIOBLASTOMA” (THE UNIVERSITY OF CHICAGO, priority 2004, published 2011).

Where a SMILES comes first, the peptide text is derived from it. The star is where a group is joined. Cbz = O=C(OCc1ccccc1)*; CH2F = FC*

Holding throughout (assay type): cell-based, human
Data set [1] deals with JNK. The data set is described as follows: JNK phosphorylation (activation), Western blot. The procedure: (§1) 20 μg of whole U87 cell (or nuclear) lysate was subjected to sodium dodecyl sulfate (SDS)-polyacrylamide gel electrophoresis (PAGE). Following electro-transfer, Immobilon-P membranes (Millipore Corp. Burlington, Mass., USA.) were probed with primary polyclonal antibody against IκBα, phospho-Ser32-IκBα, SAPK/JNK, phospho-Thr183/Tyr185-SAPK/JNK, p65, phospho-Ser536-p65 (Cell Signaling Technology Inc. Beverly, […]., USA) diluted 1:1000 overnight at 4° C. Anti-rabbit IgG HRP-linked secondary antibody (Cell Signaling Technology) was diluted 1:1000 in blocking buffer and applied for 1 h at room temperature. Immunoreactive bands were detected by SuperSignal enhanced chemiluminescence (ECL) (Pierce, Rockford, Ill., USA) and exposed to Kodak X-Omat film.
For orientation: Immunoblotting shows a protein as a band on a membrane.

Data set [2] concerns U87 cells. The data set can be described thus: Flow cytometric analysis of apoptosis (fractional DNA content, annexin V binding). As to the method:
Fractional DNA content: U87 cells (10^5) were plated overnight at 37° C. with 5% CO2. The cells were then treated with TNFα (10 ng/mL) and/or TMZ (100 μM). At 72 h the cells were washed in PBS and fixed in ice-cold 70% (v/v) ethanol. The cells were washed twice and incubated in RNase (1 mg/mL) for 30 m at 37° C., then incubated in propidium iodide (PI) solution (100 ug/mL) for […] at 4° C. Flow cytometric analysis was performed on a FACSort instrument (Becton Dickinson Immunocytometry Systems, San Jose, Calif.), and the data were analyzed using the CellQuest software (Becton Dickinson).
Annexin V binding (van Engeland, M. et al. (1998) Cytometry 31(1):1-9): At 72 h cells were washed in PBS and incubated in the dark for 15 m with binding buffer containing 5 μl of Annexin V-FITC and 5 μl of PI (Annexin V-FITC apoptosis detection kit II). The data was analyzed by Flowjo analysis software (Tree Star Inc., Ashland, Oreg.).
Cells were either un-transfected or co-transfected with pRC-CMV-p65 or pRC-CMV in the presence of a GFP plasmid at a ratio of 4:1. Under these conditions, cells expressing GFP also expressed the co-transfected plasmid (Tang, F. et al. (2002) Mol Cell Biol 22:8571-8579). Cells were then left untreated or treated as described in the figure legends. At 72 h cells were washed in PBS and incubated in the dark for 15 m with binding buffer containing 5 μl of Annexin V-FITC and 5 μl of Propidium iodide (PI). In transfected cells, annexin V binding was assessed in GFP positive cells. Data was analyzed by Flowjo analysis software (Tree Star Inc., Ashland, Oreg., USA) as described in U.S. Provisional Application No. 60/604,251 (Yamini, B. et al. (2004) Cancer Res 64:6381-6384).
In general terms: In flow cytometry, cells or beads pass a laser one at a time.

In data set [3] the test system is U87 cells. The data set can be described thus: Measurement of superoxide production (hydroethidine oxidation). The conditions noted are these: P<0.05 vs TNFα+TMZ. The procedure: U87 cells were plated at a density of 10^6 cells in flat-bottom 6-well tissue culture plates, incubated overnight and treated as indicated in the figure legend. Cells were then washed, resuspended in PBS and 1 μL of 10 mM hydroethidine (HE) per mL cell suspension (10 μM final concentration) was added and incubated for 5 m at 37° C. Cells were harvested and analyzed on a flow cytometer (FACSort; BD Biosciences) with excitation at 488 nm and emission collected using a 620-670 nm […] long-pass filter. Data was analyzed by Flowjo software.

The test system of data set [4] is U87 cells. The data set is described as follows: U87 cell viability (Trypan Blue dye exclusion, MTS). The procedure:
Trypan Blue dye exclusion method was employed. 10^4 U87 cells were plated and incubated at 37° C. overnight. Subsequently, the cells were contacted with media containing TNFα (10 ng/mL) and/or TMZ (100 μM), incubated for 3 h, and washed. […] All of the studies were performed in triplicate.

In data set [5] the test system is IκBα. The data set is described as follows: TNFα-induced IκBα degradation and phosphorylation (Western blot / kinase assay). The conditions noted are these: at 15 m, TNFα with or without TMZ pretreatment. The procedure: Cells were then washed with 10 mL ice-cold PBS, scraped from the dish, and pelleted by centrifugation at 1000 rpm for 5 m at 4° C. Cell pellets were resuspended in 400 μl of ice-cold buffer A (10 mM HEPES, pH 7.9; 10 mM KCl; 0.1 mM EDTA; 1 mM DTT; 0.5 mM phenylmethysulfonylfluoride [PMSF]; 1 μg/mL leupeptin; 5 μg/mL aprotinin) and allowed to swell on ice for 15 m. Following the addition of 25 μl of 10% NP-40, the suspension was vortexed for 10 s and centrifuged at 14,500 rpm for 1 m at 4° C. Nuclei were resuspended in 50 μl of ice-cold buffer B (20 mM HEPES, pH 7.9; […]; 1 mM EDTA; 1 mM DTT; 1 mM PMSF; 25% glycerol; 1 μg/mL leupeptin; 5 μg/mL aprotinin) and incubated on ice for 15 m. The nuclear suspension was then centrifuged at 14,500 rpm for 5 m at 4° C. and the supernatant containing the nuclear proteins was transferred to a clean tube. Protein concentrations for each sample were determined by the Bradford method (Bio-Rad, Richmond, Calif., USA) and were adjusted to 2 μg/μl by the addition of buffer B.
as §1
IκK was immunoprecipitated from treated U87 cell extracts with anti-IKKβ antibody, (Santa Cruz Biotechnology, Santa Cruz, Calif., USA). […] Kinase activity was quantified using a Phosphoimager and Equal protein loading determined by immunoblotting with anti-IκKβ antibody (Upstate USA, Charlottesville, Va., USA). […]

Where [6] appears, read: pretreatment before TMZ and TNFα.

`CC(=O)N[C@@H](CS)C(=O)O` [NAC, N-acetylcystein]: in data set [1] (U87, NAC pretreatment), the “reduction of delayed JNK activation induced by combination TMZ and TNFα” value is on record as 1.7 fold. Besides, in data set [1] (U87, TMZ and TNFα), the “transient JNK activation, NAC pretreatment” value is “without affecting”. Besides, the “effect on cell death, pretreatment alone” value in data set [2] (U87) was “minimal effects”. Also, the “apoptosis induced by combination TMZ and TNFα, inhibitor pretreatment” value in data set [2] (annexin V binding, U87, P<0.01 vs TNFα+TMZ) is reported as “significantly reversed”. Further, in data set [3], the “increase in O2^.− induced by TMZ and TNFα, NAC pretreatment” value was “significantly inhibited”.
For the compound `COC(=O)C[C@H](NC(=O)[C@H](C)NC(=O)[C@@H](NC(=O)OCc1ccccc1)C(C)C)C(=O)CF` [zVAD] (Cbz-Val-Ala-Asp(OMe)-CH2F), the “cytotoxicity induced by combined treatment with TMZ and TNFα, inhibitor pretreatment” value in data set [4] (setting [6]) was “completely reversed”. Also, the “JNK activation induced by TMZ and TNFα, inhibitor pretreatment” value in data set [1] (setting [6]) is given as “did not inhibit”.
As to TNFα, the “effect on U87 cell viability” value in data set [4] (10 ng/mL TNFα and/or 100 μM TMZ) is recorded as “Minimal effects”. Further, the “degradation of IκBα” value in data set [5] is “complete degradation”. Also, the “JNK phosphorylation (activation)” value in data set [1] (glioma cells) was “transiently increased”. Further, the “U87 cell apoptosis (sub-G1 hypodiploid/apoptotic peak)” value in data set [2] (fractional DNA content, 72 h, TNFα 10 ng/mL and/or TMZ 100 μM) is reported as “minimal effect”.
